Test results as given in patent publication US20260215428A1, “WEED CONTROL METHOD” (SYNGENTA CROP PROTECTION AG, priority 2023, published 2026).

Test system: Lolium multiflorum
Test: Further glasshouse test versus other ACCase-inhibiting herbicides, Table B2-1
Format: in vivo
Conditions: 21 days after application
From the text: Further tests were employed to test the efficacy of a compound of Formula I versus other ACCase-inhibiting herbicides. The five main targets were Lolium multiflorum, Eleusine indica, Digitaria insularis, Sorghum halepense and Echinochloa crus-galli. Collectively, the populations contained all the major target-site resistance mutations affecting ACCase herbicides. Two L. multiflorum (LM-NTSR-1 and LM-NTSR-2) and one E. crus-galli (ECG-NTSR-1) populations were characterised exclusively by non-target-site resistance (“NTSR”). The target-site resistant L. multiflorum and E. indication populations were 100% homozygous for different ACCase mutations whilst the D. insularis, S. halepense and E. crus-galli samples contained a mixture of homozygous wild and mutant individuals at different genotypic frequencies. Additional underlying NTSR cannot be ruled out in the populations characterised by target-site resistance.
Around 50 seeds of each of the 24 weed populations were sown in 12-cm pots containing a mixture of peat and compost in a 1:1 ratio. The pots were watered, fertilised and kept in controlled glasshouse conditions set at 24° C./16 hr day, 18° C. night, 65% relative humidity, and a photon flux density of approximately 250 μmol quanta m^−2 s^−1 for Lolium multiflorum. The E. indica, D. insularis, S. halepense and E. crus-galli plants were kept in a separate glasshouse bay characterised by a 17 H photoperiod of 180 μmol m^−2 s^−1 with temperatures of 25° C. day and 19° C. night and 65% relative humidity. When the plants were at the two to four-leaf stage, they were treated with the various ACCase-inhibiting herbicides at 0, 15, 30, 60, 120 and 240 g ai ha^−1 in a spray cabinet mounted with a single mobile Teejet flat fan nozzle (11002VS) calibrated to deliver 200 L ha^−1 at 200 kPa. The L. multiflorum populations were treated by a compound of Formula Ic, clodinafop-propargyl, pinoxaden, cycloxydim and clethodim and the warm season grass weeds E. indica, D. insularis, S. halepense and E. crus-galli were sprayed with a Compound Ic and the commonly employed haloxyfop-methyl and clethodim. Three replicate pots were used per population. Plants were assessed for visual damage compared to the untreated control 21 days after application (0=0% damage; 100=100% damage).

[1] = population LM-NTSR-1 (non-target-site resistance), 15 g/ha
[2] = population LM-NTSR-1 (non-target-site resistance), 30 g/ha
[3] = population LM-NTSR-1 (non-target-site resistance), 60 g/ha
[4] = population LM-NTSR-1 (non-target-site resistance), 120 g/ha
[5] = population LM-NTSR-1 (non-target-site resistance), 240 g/ha
[6] = population LM-NTSR-2 (non-target-site resistance), 15 g/ha
[7] = population LM-NTSR-2 (non-target-site resistance), 30 g/ha
[8] = population LM-NTSR-2 (non-target-site resistance), 60 g/ha
[9] = population LM-NTSR-2 (non-target-site resistance), 120 g/ha
[10] = population LM-NTSR-2 (non-target-site resistance), 240 g/ha

Q: What does the source list for `C#CCOC(=O)[C@@H](C)Oc1ccc(Oc2ncc(Cl)cc2F)cc1` [Clodinafop-propargyl, clodinafop-propargyl]?
A: visual damage (biotype C2088R, 15 g/ha): 0%; visual damage (biotype C2088R, 30 g/ha): 0%; visual damage (biotype C2088R, 60 g/ha): 0%; visual damage (biotype C2088R, 120 g/ha): 0%; visual damage (biotype C2088R, 240 g/ha): 7%; visual damage (biotype D2078G, 15 g/ha): 0%; visual damage (biotype D2078G, 30 g/ha): 0%; visual damage (biotype D2078G, 60 g/ha): 0%; visual damage (biotype D2078G, 120 g/ha): 0%; visual damage (biotype D2078G, 240 g/ha): 0%; visual damage (biotype I1781L, 15 g/ha): 7%; visual damage (biotype I1781L, 30 g/ha): 7%; visual damage (biotype I1781L, 60 g/ha): 7%; visual damage (biotype I1781L, 120 g/ha): 10%; visual damage (biotype I1781L, 240 g/ha): 33%; visual damage (biotype Sensitive, 15 g/ha): 67%; visual damage (biotype Sensitive, 30 g/ha): 98%; visual damage (biotype Sensitive, 60 g/ha): 100%; visual damage (biotype Sensitive, 120 g/ha): 100%; visual damage (biotype Sensitive, 240 g/ha): 100%; visual damage (biotype W1999S, 15 g/ha): 0%; visual damage (biotype W1999S, 30 g/ha): 0%; visual damage (biotype W1999S, 60 g/ha): 0%; visual damage (biotype W1999S, 120 g/ha): 0%; visual damage (biotype W1999S, 240 g/ha): 0%; visual damage (biotype W2027C, 15 g/ha): 0%; visual damage (biotype W2027C, 30 g/ha): 0%; visual damage (biotype W2027C, 60 g/ha): 0%; visual damage (biotype W2027C, 120 g/ha): 0%; visual damage (biotype W2027C, 240 g/ha): 0%; visual damage [1]: 0%; visual damage [2]: 0%; visual damage [3]: 0%; visual damage [4]: 27%; visual damage [5]: 52%; visual damage [6]: 0%; visual damage [7]: 0%; visual damage [8]: 0%; visual damage [9]: 0%; visual damage [10]: 0%

Q: With `CCCC(=NOCC)C1=C(O)CC(C2CCCSC2)CC1=O` (centres unmarked) [Cycloxydim, cycloxydim] as the compound, how does the visual damage (biotype C2088R, 15 g/ha) read?
A: Its visual damage is 0%.

Q: What about the visual damage (biotype C2088R, 30 g/ha) of the same compound?
A: The visual damage was 0%.

Q: What about the visual damage (biotype C2088R, 60 g/ha) of the same compound?
A: The visual damage was 0%.

Q: And the visual damage (biotype C2088R, 120 g/ha)?
A: The visual damage was 0%.

Q: And the visual damage (biotype C2088R, 240 g/ha)?
A: The visual damage was 0%.

Q: And the visual damage (biotype D2078G, 15 g/ha)?
A: Its visual damage is 0%.

Q: What about the visual damage (biotype D2078G, 30 g/ha) of the same compound?
A: Its visual damage is 0%.

Q: And the visual damage (biotype D2078G, 60 g/ha)?
A: The visual damage was 0%.

Q: What about the visual damage (biotype D2078G, 120 g/ha) of the same compound?
A: The visual damage was 3%.

Q: And the visual damage (biotype D2078G, 240 g/ha)?
A: Its visual damage is 7%.

Q: And the visual damage (biotype I1781L, 15 g/ha)?
A: Its visual damage is 0%.

Q: What about the visual damage (biotype I1781L, 30 g/ha) of the same compound?
A: Its visual damage is 0%.

Q: What about the visual damage (biotype I1781L, 60 g/ha) of the same compound?
A: Its visual damage is 7%.

Q: What about the visual damage (biotype I1781L, 120 g/ha) of the same compound?
A: Its visual damage is 13%.

Q: What about the visual damage (biotype I1781L, 240 g/ha) of the same compound?
A: Its visual damage is 13%.

Q: What about the visual damage (biotype Sensitive, 15 g/ha) of the same compound?
A: Its visual damage is 0%.

Q: And the visual damage (biotype Sensitive, 30 g/ha)?
A: The visual damage was 0%.

Q: What about the visual damage (biotype Sensitive, 60 g/ha) of the same compound?
A: The visual damage was 0%.

Q: And the visual damage (biotype Sensitive, 120 g/ha)?
A: Its visual damage is 88%.

Q: And the visual damage (biotype Sensitive, 240 g/ha)?
A: Its visual damage is 100%.

Q: What about the visual damage (biotype W1999S, 15 g/ha) of the same compound?
A: The visual damage was 0%.

Q: What about the visual damage (biotype W1999S, 30 g/ha) of the same compound?
A: The visual damage was 0%.

Q: What about the visual damage (biotype W1999S, 60 g/ha) of the same compound?
A: The visual damage was 0%.

Q: What about the visual damage (biotype W1999S, 120 g/ha) of the same compound?
A: The visual damage was 0%.

Q: What about the visual damage (biotype W1999S, 240 g/ha) of the same compound?
A: Its visual damage is 0%.

Q: What about the visual damage (biotype W2027C, 15 g/ha) of the same compound?
A: The visual damage was 0%.

Q: What about the visual damage (biotype W2027C, 30 g/ha) of the same compound?
A: The visual damage was 0%.

Q: What about the visual damage (biotype W2027C, 60 g/ha) of the same compound?
A: The visual damage was 0%.

Q: And the visual damage (biotype W2027C, 120 g/ha)?
A: The visual damage was 0%.

Q: And the visual damage (biotype W2027C, 240 g/ha)?
A: The visual damage was 50%.

Q: And the visual damage [1]?
A: The visual damage was 0%.

Q: And the visual damage [2]?
A: Its visual damage is 0%.

Q: What about the visual damage [3] of the same compound?
A: Its visual damage is 0%.

Q: What about the visual damage [4] of the same compound?
A: Its visual damage is 3%.

Q: What about the visual damage [5] of the same compound?
A: The visual damage was 60%.

Q: What about the visual damage [6] of the same compound?
A: Its visual damage is 0%.

Q: And the visual damage [7]?
A: The visual damage was 0%.

Q: What about the visual damage [8] of the same compound?
A: Its visual damage is 0%.

Q: What about the visual damage [9] of the same compound?
A: The visual damage was 0%.

Q: And the visual damage [10]?
A: The visual damage was 0%.
